{"source": "patent US20240307339A1", "about": "“NOVEL COMPOUNDS FOR THE TREATMENT AND PREVENTION OF NEUROLOGICAL COMPLICATIONS OF VIRAL INFECTIONS” (Sunregen Healthcare AG, priority 2021, published 2024)", "key": {"[1]": {"tested_on": "YHB1 (yeast homologue of neuroglobin) mRNA", "test": "RNAseq of yeast cells treated with tripentadecanoin", "assay_type": "cell-based, Saccharomyces cerevisiae", "experimental": "(§1) Potential targets of the compound of formula (I) were identified by using RNAseq. The yeast cells (Saccharomyces cerevisiae) were treated with tripentadecanoin (30 μM) for 5 hours and the mRNA abundance of all genes in cells that were treated with the compound or vehicle only for 5 hours was quantitatively monitored. Samples in triplicate were processed by the company Genewiz. […] Among these hits is Yhb1, a flavohemoglobin that plays a role in nitrosative stress response (FIG. 4A). Following the results from the RNAseq survey, PH084, YHB1 or VTC4 were knocked out and the proportion of old cells with an Hsp104-GFP focus was measured, as before. While pho84Δ cells were similar to wild type cells, much more vtc4Δ and yhb1Δ mutant cells contained an age-induced deposit (FIG. 4A)."}, "[2]": {"tested_on": "Mouse hepatitis virus (MHV)", "test": "mouse model of coronavirus infection (MHV infected mice)", "assay_type": "in vivo, C57BL/6J male mice", "conditions": "vs vehicle; for clinical score / clinical severity of virus induced neuropathology: 50 mg/kg, treatment started 3 days after virus infection till Day 21, P<0.05 on days 9, 10 or 14", "experimental": "Tripentadecanoin was tested in a mouse model of coronavirus infection. The objective of this study was to investigate tripentadecanoin's therapeutic effects in MHV infected mice. Mouse hepatitis virus (MHV) causes acute infections of the murine liver and lungs and persistent infections of the gastrointestinal tract and central nervous system (CNS). […] This virus was named JHM virus (JHMV) and subsequently shown to be a coronavirus, related to other MHV strains (Bergmann, C., Lane, T. & Stohlman, S. Coronavirus infection of the central nervous system: host-virus stand-off. Nat Rev Microbiol 2006; 4:121-132.). JMHV is now broadly used to study virus-induced neurological diseases, particularly demyelination. It is considered to be a suitable model for coronavirus-induced neurological complication. CNS infection with MHV provides an animal model for acute viral-induced encephalomyelitis and the human demyelinating disease, multiple sclerosis. MHV-induced demyelinating disease is typified by mice, which control viral replication, but fail to fully clear virus. Acute infection induces CNS inflammation and initiates the demyelinating process. Animals that fail to control virus replication in a sufficiently rapid manner succumb to encephalomyelitis within 5-10 days. Survivors of acute infection typically eliminate infectious virus within two weeks. However, these animals still fail to achieve sterile immunity as evidenced by the persisting viral antigen (Ag) and RNA within the CNS. MHV persistence is associated with chronic CNS inflammation and ongoing primary demyelination.\n20 C57BL/6J male mice of at 5 weeks of age were randomized into 2 groups of vehicle control or tripentadecanoin 50 mg/kg. Tripentadecanoin or vehicle control treatment was started 3 days after virus infection for a total of 19 days till Day 21. Clinical score of MHV infected mice was rated as: 0—asymptomatic; 1—limp tail; 2—wobbly gait with righting difficulty; 3—hind limb weakness and extreme righting difficulty; 4—hind limb paralysis; 5—moribund."}, "neuroglobin mRNA": {"tested_on": "neuroglobin mRNA", "test": "Expression of neuroglobin in mouse primary cortical neurons (qPCR)", "assay_type": "cell-based, C57BL/6J mouse", "experimental": "Healthy neurons preparation: primary mouse cortical neurons from embryonic day 16-17 were prepared from C57BL/6J mouse foetuses, resulting in 95-97% of neurons and 3-5% astrocytes. At DIV 5/6, mouse primary cortical neurons was treated for 3 h (T3) or 24 h (T24) with vehicle (ethanol) or increasing concentrations of tripentadecanoin (100 or 1000 nM). q PCRmethods used to amplify the mRNA of neuroglobin.\nThe amount and quality of RNA were evaluated using capillary electrophoresis. The complementary DNA (cDNA) was synthesized by reverse transcription of total RNA in presence of oligo(dT) and “Transcriptor reverse transcriptase” from Roche. The cDNA quantities were then adjusted before the PCRstep. The qPCRreactions were performed using the Licht Cycler system from Roche according to supplier instructions. In this experiment, Rps28 (Ribosomal protein S28) was used as a reference marker (also referred to as housekeeping gene).\nThe reaction mix (10 μL final) was prepared as follows: • 2.5 μL cDNA • Primers and TaqMan probe • Reagent mix containing taq DNA polymerase and MgCl2.\nThe following primers were used in this experiment: […]"}, "[3]": {"tested_on": "NMU-induced photoreceptor degeneration (retina)", "test": "murine model of N-nitroso-N-methylurea (NMU) photoreceptor degeneration", "assay_type": "in vivo, C57BL/6J mice", "conditions": "for outer nuclear layer (ONL) area under the curve (AUC -1.75 to +1.75 μm): H&E histology; for number of rows of photoreceptor nuclei: mid-peripheral region", "experimental": "Eighteen 8-12-week-old female C57BL/6J mice were randomized into three groups: 1) NMU+vehicle; 2) NMU+Tripentadecanoin 20 mg/kg; 3) NMU+Tripentadecanoin 50 mg/kg. NMU at a dose of 50 mg/kg was injected i.p. to all mice; Tripentadecanoin (or vehicle) was administered daily via oral gavage starting 3 days before NMU and continuing until 7 days after NMU challenge. Retina were imaged by spectral domain optical coherence tomography (OCT) 5 days before exposing to NMU and 7 days after NMU. All eyes were collected and processed for histological hematoxylin and eosin (H&E) staining. The thicknesses of photoreceptors were measured from different locations on OCT images and H&E slides, respectively. Photoreceptor thickness on H&E slides were quantified using automated Leica software (Leica, Heerbrugg), operated by a single masked observer. Results were expressed as the outer nuclear layer (ONL) area under the curve (AUC −1.75 to +1.75 μm) and number of rows of photoreceptor nuclei."}, "[4]": {"tested_on": "Hsp104-GFP age-induced protein deposit", "test": "Hsp104-GFP age-induced protein deposit in old yeast cells (replicative ageing)", "assay_type": "cell-based, Saccharomyces cerevisiae", "conditions": "for proportion of cells with an Hsp104-GFP focus / proportion of cells with an Hsp104-GFP focus decreased: 30 μM", "description": "While yeast populations can be propagated ad libitum, the yeast mother cell has a finite lifespan and can only produce a certain amount of daughter cells, typically 25 for laboratory backgrounds. Mortality rate increases with the number of daughter cells produced, therefore this phenomenon is termed replicative ageing. In old yeast cells, age-induced protein deposits recruit a specific set of chaperones and co-chaperones.\nHsp104 expressed endogenously as a fusion to the green fluorescent protein tag (Hsp104-GFP) forms a focus in old cells. The presence (percentage of cells with an aggregate at a certain age), number (number of foci per cell) and size (fluorescent brightness) can be assessed on hundreds of cells and thus, this gives a good model for assessing the biology of age induced aggregates.\nTo test if tripentadecanoin is active in yeast, cells were treated with different concentrations of the purified compound (1 μM, 10 μM and 30 μM) as well as an extract (10 μg/ml) of the plant it is derived from (Ophioglossum thermale). These cells were let to age in the presence of the compound and after 10-11 generations, cells were imaged to count their age and assess whether they contained a Hsp104-GFP age-induced protein deposit or not (FIG. 3A).\nas §1"}}}
{"molecule": "CCCCCCCCCCCCCCC(=O)OCC(COC(=O)CCCCCCCCCCCCCC)OC(=O)CCCCCCCCCCCCCC", "note": "[tripentadecanoin]", "values": [{"measurement": "mRNAs significantly differentially expressed vs vehicle", "setting": "[1]; 30 μM, 5 hours, RNAseq, triplicate", "result": 157}, {"measurement": "expression of YHB1", "setting": "[1]; yeast cells treated with tripentadecanoin", "result": "significantly increased"}, {"measurement": "clinical score / clinical severity of virus induced neuropathology", "setting": "[2]", "result": "reducing the clinical severity of virus induced neuropathology"}, {"measurement": "clinical score / clinical severity of virus induced neuropathology", "setting": "[2]; listed as compound of the formula (I)", "result": "improved clinical score"}, {"measurement": "weight loss of animals", "setting": "[2]; mouse model of coronavirus infection", "result": "reduced weight loss of animals"}, {"measurement": "expression of neuroglobin vs vehicle control", "setting": "neuroglobin mRNA; 1000 nM, 3 hours, p<0.001", "result": "significant increased expression of neuroglobin"}, {"measurement": "increase in the expression level of neuroglobin", "setting": "neuroglobin mRNA; mouse neurons, Example 4", "result": "approximately six-fold"}, {"measurement": "outer nuclear layer (ONL) area under the curve (AUC -1.75 to +1.75 μm)", "setting": "[3]; 20 mg/kg daily oral gavage, p<0.01 vs vehicle", "result": "73.58±14.45"}, {"measurement": "number of rows of photoreceptor nuclei", "setting": "[3]; 20 mg/kg, p<0.01 vs vehicle", "result": "6.4±1.2"}, {"measurement": "outer nuclear layer (ONL) area under the curve (AUC -1.75 to +1.75 μm)", "setting": "[3]; 50 mg/kg daily oral gavage, p<0.001 vs vehicle", "result": "83.08±19.05"}, {"measurement": "number of rows of photoreceptor nuclei", "setting": "[3]; 50 mg/kg, p<0.001 vs vehicle", "result": "7.0±1.7"}, {"measurement": "neuroretinal thickness (OCT)", "setting": "[3]; 50 mg/kg, peripheral (p<0.05), mid-peripheral (p<0.05) and central retina (p<0.01) vs vehicle", "result": "significantly increased"}, {"measurement": "thickness of photoreceptor layers (in vivo OCT images)", "setting": "[3]; OCT 7 days after NMU, vs control", "result": "increased thickness of photoreceptor layers"}, {"measurement": "cells containing a Hsp104-GFP age-induced protein deposit (focus)", "setting": "[4]; 1 μM, 10 μM and 30 μM, after 10-11 generations, vs vehicle 0.3% ethanol", "result": "less likely to harbor a Hsp104-GFP focus"}, {"measurement": "proportion of cells with an Hsp104-GFP focus", "setting": "[4]; pho84Δ cells", "result": "decreased"}, {"measurement": "proportion of cells with an Hsp104-GFP focus decreased", "setting": "[4]; vtc4Δ mutant cells", "result": "this was not the case"}, {"measurement": "proportion of cells with an Hsp104-GFP focus", "setting": "[4]; wild type cells", "result": "decreased"}, {"measurement": "aggregation of HSP-104 (GFP-HSP104 loci)", "setting": "[4]; yeast cells, summary statement", "result": "greatly reduced"}, {"measurement": "proportion of cells with an Hsp104-GFP focus decreased", "setting": "[4]; yhb1Δ mutant cells", "result": "this was not the case"}]}
